Reference: US20240099951A1, “HAIR GROWTH STIMULANT” (ADJUVANT HOLDINGS CO., LTD., priority 2020, published 2024)

Legend:
[1] = system: skin samples derived from C57BL/6N mouse dorsal body hair skin grafted onto Balb/c nu/nu mice; assay: Evaluation of hair growth activity: drug applied on skin samples transplanted in mice; assay type: in vivo
Protocol: C57BL/6N mice (male) and Balb/c nu/nu mice (female) were purchased from Japan SLC, Inc. (Japan) and bred, and were thereafter made available for the following testing. Note that the testing and breeding of animals complied with pertinent laws, regulations, ordinances, and guidelines, and was performed with the approval of the Experimental Ethics Review Board of the Institute of Physical and Chemical Research. The following reagents were respectively prepared. • Comparative Example 1: 60% aqueous ethanol solution • Comparative Example 2: 5% minoxidil solution • Comparative Example 3: 3% minoxidil solution • Comparative Example 4: 1% minoxidil solution • Working Example 1: 3% phytosphingosine solution • Working Example 2: 1% phytosphingosine solution To collect dorsal body hair skin in the form of anagen stage VI skin 12 to 14 days following depilation, C57BL/6N mice of age 7 to 8 weeks were depilated at locations where dorsal body hair skin was intended to be collected, and were bred for 12 to 14 days. The depilated C57BL/6N mice were thereafter euthanized by cervical dislocation, following which a suitable amount of dorsal body hair skin was collected from the locations at which dorsal body hair skin was intended to be collected. The collected skin was immersed in DMEM culture medium (hereinafter “DMEM 10”) which contained 10 mM HEPES, 10% fetal bovine serum, and 1% penicillin/streptomycin solution. The collected dorsal body hair skin was grasped with bent-nose curved tweezers and was treated by immersion for 10 seconds in a sterilizing solution. Sterilization treatment was performed by carrying out treatment with 7% povidone iodine solution two times, treatment with PBS (−) three times, and treatment with DMEM 10 two times, in this order, with fresh solutions respectively being used each time. Following sterilization treatment, these were immersed in clean DMEM 10. Following sterilization treatment, the dorsal body hair skin was cut into pieces and formed into blocks. The transparent connective tissue which adhered to the cutaneous muscle layer of the skin was excised therefrom using curved scissors, and hair groups were cut into rectangular strips in parallel fashion with respect to the direction of the wave of the hair. At this time, these were cut into blocks such that there were 6 rows of hair follicles along the long axis, adjustment having been carried out so that there were 5 rows of hair follicles along the short axis. The skin samples derived from dorsal body hair skin that were prepared in accordance with the foregoing were grafted onto Balb/c nu/nu mice of age 4 to 6 weeks. More specifically, mice were anesthetized in the usual way using isoflurane gas. The dorsal area of the mice was then disinfected using 7% povidone iodine solution, following which the mice were made to assume a naturally recumbent posture. In addition, a Mani ophthalmic knife (Mani, Inc.; Japan) was used to pierce the skin at the dorsal area of the mice, the grafts which were formed extending from the epidermal layer of the skin to the subdermal layer. The skin samples derived from dorsal body hair skin were inserted into the grafts formed thereat in such fashion as to cause the hair groups to be directed toward the body surface side of the grafts. Skin sample transplanted depth was adjusted so as to cause the top portion of the hair group to be in a state such that it was exposed at the top portion of the graft. To protect the grafts, Nurseban (registered trademark) (Sunplanet Co., Ltd.; Japan) and surgical tape (3M Japan Limited; Japan) were then used as protective tape to cover the grafts at which the skin samples derived from dorsal body hair skin had been transplanted. The protective tape was removed 5 to 7 days following transplantation, and survival of the transplanted skin samples derived from dorsal body hair skin was determined by visual inspection or digital microscopy (Keyence Corporation; Japan), after which follow-up observation was carried out. […]

[2] = system: hair groups derived from C57BL/6N dorsal body hair skin transplanted in Balb/c nu/nu mice; assay: Evaluation of hair-diameter-increasing activity (hair shafts grown after third cycle of Exemplary Test 1); assay type: in vivo
Protocol: Dorsal body hair skin was collected from C57BL/6N mice (SLC) of age 7 to 8 weeks in accordance with a procedure similar to that at Exemplary Test 1, above, the drug being applied after the hair groups derived from the dorsal body hair skin that had been fabricated were transplanted in Balb/c nu/nu mice (SLC) of age 4 to 6 weeks. Testing and breeding of animals complied with pertinent laws, regulations, ordinances, and guidelines, and was performed with the approval of the Experimental Ethics Review Board of the Institute of Physical and Chemical Research. The following three solutions were used during testing. • 60% aqueous ethanol solution • 5% minoxidil solution • 1% phytosphingosine solution Measurement of increase in hair diameter was carried out using hair shafts which had grown following completion of the third cycle at Exemplary Test 1. Of the hair shafts that were collected, two zigzag hairs were used. Three locations were selected in regions where diameter was large in the central portions thereof using a square 100 μm on a side. Measurement of selected regions was carried out at five locations. Hairs as they existed following application of the drug were used for measurement of hair shaft diameter.

[3] = 1% minoxidil solution (Comparative Example 4), second hair cycle
[4] = 1% minoxidil solution (Comparative Example 4), third hair cycle
[5] = 1% minoxidil solution, second hair cycle vs first hair cycle
[6] = 1% minoxidil solution, third hair cycle vs first hair cycle
[7] = 3% minoxidil solution (Comparative Example 3), second hair cycle
[8] = 3% minoxidil solution (Comparative Example 3), third hair cycle
[9] = 3% minoxidil solution, second hair cycle vs first hair cycle
[10] = 3% minoxidil solution, third hair cycle vs first hair cycle
[11] = 5% minoxidil solution (Comparative Example 2), second hair cycle
[12] = 5% minoxidil solution (Comparative Example 2), third hair cycle
[13] = 5% minoxidil solution, second hair cycle vs first hair cycle
[14] = 5% minoxidil solution, third hair cycle vs first hair cycle

Question: `Nc1cc(N2CCCCC2)nc(N)[n+]1[O-]` [minoxidil] was tested. Which “Hair shaft elongation rate” value [1, 3] did it give?
Answer: 0.54 ± 0.08 mm/day

Question: What about the “Maximum hair shaft length” value [1, 3] of the same compound?
Answer: 5.2 ± 0.3 mm

Question: What about the “Hair shaft elongation rate” value [1, 4] of the same compound?
Answer: 0.44 ± 0.02 mm/day

Question: And the “Maximum hair shaft length” value [1, 4]?
Answer: 4.9 ± 0.4 mm

Question: What about the “Hair shaft elongation rate, percent change relative to reference data” value [1, 5] of the same compound?
Answer: 123.85%

Question: And the “Maximum hair shaft length, percent change relative to reference data” value [1, 5]?
Answer: 118.07%

Question: And the “Hair shaft elongation rate, percent change relative to reference data” value [1, 6]?
Answer: 100.24%

Question: What about the “Maximum hair shaft length, percent change relative to reference data” value [1, 6] of the same compound?
Answer: 111.10%

Question: And the “Hair shaft elongation rate” value [1, 7]?
Answer: 0.48 ± 0.07 mm/day

Question: And the “Maximum hair shaft length” value [1, 7]?
Answer: 5.2 ± 0.2 mm

Question: What about the “Hair shaft elongation rate” value [1, 8] of the same compound?
Answer: 0.53 ± 0.03 mm/day

Question: What about the “Maximum hair shaft length” value [1, 8] of the same compound?
Answer: 5.3 ± 0.3 mm

Question: What about the “Hair shaft elongation rate, percent change relative to reference data” value [1, 9] of the same compound?
Answer: 126.50%

Question: And the “Maximum hair shaft length, percent change relative to reference data” value [1, 9]?
Answer: 116.80%

Question: What about the “Hair shaft elongation rate, percent change relative to reference data” value [1, 10] of the same compound?
Answer: 139.36%

Question: And the “Maximum hair shaft length, percent change relative to reference data” value [1, 10]?
Answer: 120.09%

Question: And the “Hair shaft elongation rate” value [1, 11]?
Answer: 0.51 ± 0.03 mm/day

Question: What about the “Maximum hair shaft length” value [1, 11] of the same compound?
Answer: 6.0 ± 0.1 mm

Question: What about the “Hair shaft elongation rate” value [1, 12] of the same compound?
Answer: 0.55 ± 0.07 mm/day

Question: And the “Maximum hair shaft length” value [1, 12]?
Answer: 5.8 ± 0.1 mm

Question: What about the “Hair shaft elongation rate, percent change relative to reference data” value [1, 13] of the same compound?
Answer: 116.25%

Question: And the “Maximum hair shaft length, percent change relative to reference data” value [1, 13]?
Answer: 115.74%

Question: What about the “Hair shaft elongation rate, percent change relative to reference data” value [1, 14] of the same compound?
Answer: 126.11%

Question: What about the “Maximum hair shaft length, percent change relative to reference data” value [1, 14] of the same compound?
Answer: 112.62%

Question: What about the Hair shaft diameter ([2]; 5% minoxidil solution applied, hair shafts after third cycle) of the same compound?
Answer: 18.28 μm

Question: What about the “hair shaft diameter as percent of control” value ([2]; 5% minoxidil solution vs 60% aqueous ethanol solution) of the same compound?
Answer: 115%
